Three compounds from patent EP0526936A2, “Cholesterol-lowering agents” (MERCK & CO. INC., priority 1991, dated 1993) can be followed below.

Assay [1] has as its target T1, squalene synthase (Saccharomyces cerevisiae, UniProt P29704).
T1 construct: The pellet fractions were suspended at 10-20 mg/ml protein in breakage buffer containing 25% glycerol; endogenous in cells; host or cells: S. cerevisiae W303-1A
T1 sequence (P29704 1-444): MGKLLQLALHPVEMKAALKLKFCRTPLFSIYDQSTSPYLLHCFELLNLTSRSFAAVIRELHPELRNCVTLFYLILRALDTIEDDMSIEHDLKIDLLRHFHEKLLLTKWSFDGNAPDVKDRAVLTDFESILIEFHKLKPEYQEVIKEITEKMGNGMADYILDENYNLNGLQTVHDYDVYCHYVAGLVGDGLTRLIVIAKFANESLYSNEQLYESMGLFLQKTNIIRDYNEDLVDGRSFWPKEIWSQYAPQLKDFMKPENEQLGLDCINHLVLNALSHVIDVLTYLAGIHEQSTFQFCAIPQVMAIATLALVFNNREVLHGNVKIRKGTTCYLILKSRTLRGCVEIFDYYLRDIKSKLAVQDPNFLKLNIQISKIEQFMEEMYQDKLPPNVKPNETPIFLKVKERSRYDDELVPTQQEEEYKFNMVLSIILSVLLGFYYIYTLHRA
The assay is described as follows: Squalene synthase assay, yeast enzyme. The assay is classed as biochemical, S. cerevisiae W303-1A. Particulars: yeast enzyme preparation; 12 min preincubation, 12 min reaction at 30 °C; read-out: Squalene Synthase Inhibition IC50 Yeast Enzyme (converted). On the procedure:
(§1) The intrinsic squalene synthase inhibitory activity of representative compounds of this invention was measured by the standard in vitro protocol described below:
S. cerevisiae W303-1A (MATa ade2-1 canl-100 his3-11,15 leu2-3,112 trp1-1 ura3-1) was grown at 30 ° C for 24 hours in YPD medium ([…], 2% glucose) supplemented with 20 µg/mL adenine. The cells were washed and resuspended in a minimal volume of breakage buffer (100 mM KP04, pH 7.4, 3 mM DTT, 1 mM PMSF). The cells were added to the small chamber of the Bead-Beater Cell Disrupter (Biospec Products, Bartlesville, OK) containing 100 g of 0.5 mm glass beads. Buffer was added to fill the chamber. The sealed chamber was packed in ice and processed for 4 cycles of 30 sec with 2 min. cooling between cycles. Cell breakage was determined to be >90% by phase-contrast microscopy. The glass beads were removed by Whatman filter paper and the filtrate collected into an ice- immersed filter flask. The extract was centrifuged at 1500 x g for 10 min at 4°C. The pellet (P1) containing unbroken cells and cell walls was discarded. The supernatant (S1) was centrifuged at 30000 x g for 30 min at 4°C. The pellet (P2) contained about two-thirds of the total squalene synthase activity. The supernatant (S2) can be centrifuged at 100,000 x g for 60 min at 4°C to pellet the remaining activity (P3). The pellet fractions were suspended at 10-20 mg/ml protein in breakage buffer containing 25% glycerol. The activity was stable for several months at -80 ° C.
(§2) Reactions were performed in 1.2 mL polypropylene tube strips of eight. […] The reaction product was extracted with 0.4 mL heptane containing 0.4 µL carrier squalene 0.2 mL of the heptane extract was counted by liquid scintillation. […]
(§3) Percent inhibition is calculated by the formula: [formula]
lC50 values were determined by plotting the log of the concentration of the test compound versus the percentage inhibition. […]

Assay [2] addresses T2, squalene synthase (Rattus norvegicus, UniProt Q02769).
T2 construct: from tissue; host or cells: liver microsomes of male Charles River CD rats fed 0.1% lovastatin
T2 sequence (Q02769 1-416): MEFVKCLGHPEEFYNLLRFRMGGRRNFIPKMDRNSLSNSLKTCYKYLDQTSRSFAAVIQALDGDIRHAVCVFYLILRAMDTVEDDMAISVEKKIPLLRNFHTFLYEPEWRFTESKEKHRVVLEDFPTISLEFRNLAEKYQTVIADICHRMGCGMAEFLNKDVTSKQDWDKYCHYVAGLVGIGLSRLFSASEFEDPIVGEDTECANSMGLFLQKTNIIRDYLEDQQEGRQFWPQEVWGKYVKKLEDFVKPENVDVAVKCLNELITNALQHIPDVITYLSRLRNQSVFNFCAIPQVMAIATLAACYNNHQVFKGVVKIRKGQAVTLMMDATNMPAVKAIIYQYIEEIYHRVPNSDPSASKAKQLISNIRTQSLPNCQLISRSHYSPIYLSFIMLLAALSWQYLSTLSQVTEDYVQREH
Description: Squalene synthase assay, rat liver microsomes. Particulars: [4-14C]farnesyl-pyrophosphate, 20 minutes at 30 °C. The assay is classed as biochemical, rats. Here is the method: Alternatively, the intrinsic squalene synthase inhibitory activity of the compounds formed in the fermentation of the microorganisms of the present invention may be measured by the standard in vitro protocol described below:
Male, CHARLES RIVER@ CD rats (120 to 150 g) were fed a diet containing 0.1% lovastatin for 4 days. The livers from these rats were homogenized in 5 volumes (mL/g) of ice cold 50 mM HEPES (4-(2-hydroxyethyl)-1-piperazine-ethanesulfonic acid), 5 mM EDTA(ethylenediaminetetraacetic acid) pH 7.5 with a Potter-Elvehjem type tissue grinder. The homogenate was centrifuged twice at 20,000 x g for 15 min. at 4°C, discarding the pellet each time. The supernatant was then centrifuged at 100,000 x g for 1 hr at 4°C. The resulting microsomal pellet was resuspended in a volume of the above homogenizing buffer equal to one-fifth the volume of the original homogenate. This microsomal preparation has a protein concentration of about 7 mg/mL. The microsomal suspensions were stored in aliquots at -70 °C. Squalene synthase activity in these aliquots is stable for a least several months. […]
This assay mix was degassed under a vacuum and flushed with N2. […] Ten mL of scintillation fluid was added to the heptane solution and radioactivity was determined by liquid scintillation counting.
as §3

Assay [3] has as its target T3, squalene synthase (Homo sapiens, UniProt P37268).
T3 construct: The HepG2 enzyme preparation was centrifuged at 34,000 rpm to separate the cytosol and microsomal enzymes; host or cells: HepG2
T3 sequence (P37268 1-417): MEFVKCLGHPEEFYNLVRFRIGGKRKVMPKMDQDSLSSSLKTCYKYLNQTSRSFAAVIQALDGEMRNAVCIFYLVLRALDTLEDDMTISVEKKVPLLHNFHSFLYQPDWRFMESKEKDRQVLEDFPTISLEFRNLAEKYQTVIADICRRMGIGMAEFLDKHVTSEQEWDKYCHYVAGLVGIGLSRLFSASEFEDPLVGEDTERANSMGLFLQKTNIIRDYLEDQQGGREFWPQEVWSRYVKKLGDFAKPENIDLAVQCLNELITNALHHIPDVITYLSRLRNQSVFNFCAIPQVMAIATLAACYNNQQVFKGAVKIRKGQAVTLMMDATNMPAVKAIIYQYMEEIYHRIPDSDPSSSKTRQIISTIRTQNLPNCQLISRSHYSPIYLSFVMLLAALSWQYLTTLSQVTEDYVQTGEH
The assay is described as follows: Squalene synthase assay, HepG2 cell enzyme. The assay is classed as biochemical. Particulars: HepG2 enzyme preparation; 12 min preincubation, 12 min reaction at 30 °C; read-out: Squalene Synthase Inhibition IC50 HepG2 Enzyme (converted). On the procedure:
as §1
1. SOURCE: HEPG2 CELL LINE (Liver, hepatoblastoma, Human) ATCC No. HB 8065
Culture Medium: Minimum essential medium (MEM) with non-essential amino acids, sodium pyruvate, and 10% fetal bovine serum. The medium was changed twice weekly. […] The growth medium was prepared as listed below.
SUBCULTURE PROCEDURE: The medium was removed and washed with PBS (Phosphate-Buffered Saline 15.6 mM, pH 7.0). Fresh trypsin (0.25%)-EDTA (0.02%) with Hank's Balanced Salt solution was added and the flask was allowed to stand for a minute before the trypsin solution was removed. The flask was incubated at 370 C until cells detached. Fresh medium was added and the cells were dispersed and dispensed into new flasks. Subcultivation ratio: 1:6.
PREPARATION OF DELIPIDATED SERUM: Fetal calf serum (100 ml) and CAB-O-Sil (2 grams) were stirred overnight at 4°C and centrifuged at 16,000 rpm for 5 hrs. The supernantant was filtered and the serum was stored at 4 C.
48 hrs. prior to harvest, cells grown in MEM with 10% Fetal Calf serum were switched to MEM with 10% delipidated serum.
HARVEST: The medium was removed and the cells were washed with PBS. Fresh trypsin (0.25%)-EDTA (0.02%) with Hanks' Balanced Salt solution was added and allowed to stand and removed. The flask was incubated at 37 C until the cells detached. MEM medium (6 mL/flask) was added to suspend cells and combined into a centrifuge tube. […] Cells were counted ([…] yield from 18 flasks (75 cm^2)), and resuspended in 10 mL of 50mM HEPES (N-[2-Hydroxyethyl]piperazine-N'-[2-ethane-sulfonic acid]) containing 5mM MgCI2, 2mM MnCI2, 10mM DTT, pH 7.5 (enzyme suspension buffer). […]
as §2
Percent inhibition is calculated by the formula: [formula] […]

The target of another assay is Farnesyl Transferase (Homo sapiens, UniProt P49356). Description: Farnesyl-transferase assay (inhibition of Ras farnesylation in vitro). The assay is classed as biochemical. Particulars: ras-CVLS 3 μM, 60 min at room temperature. Here is the method: FARNESYL-TRANSFERASE ASSAY
100 µL of 0.5 M DTT was added to 900 µL of 1.1 M HEPES, pH 7.5 and 55.5 mM MgCl2 to yield a 10X buffer consisting of 1.0 M HEPES, pH 7.5, 50 mM MgCl2 and 50 mM DTT.
The reaction mix was prepared as below:
A Blank reaction mix was also prepared with the negative control ras-protein, and the Total/Sample reaction mix received the ras-CVLS. The same volumes were used to prepare the Blank reaction mix as those in Table 1.
The farnesyl trasferase solution was prepared as shown below. The farnesyl transferase mix was prepared right before use.
• i. The assay volume was 100 µL, the volume of sample to be tested was 5 µL and the time of incubation is 60 min at room temperature. • ii. The TECAN 8000/505, an automatic pipetting station, added 50 µL of water plus 5 µL of sample to the assay tubes. • iii. The ras-CVLS reaction mix (20 µL) was manually added to totals and unknowns. The negative control ras-protein reaction mix (20 µL) was manually added to the blank tubes. • iv. The farnesyl transferase mix (25 µL) was manually added to all tubes to initiate the reaction and the assay tubes were kept at room temperature for 60 min. • v. The assay was stopped placing the assay tubes in an ice bath for 5 minutes. • vi. 1.0 mL of 1.0 M HCI in 100% ethanol was then added to each tube. The assay tubes (uncapped) were incubated at 37 ° C for 60 min. to facilitate the hydrolysis of the FPP. • vii. Assay tubes were harvested through a TOMTEC 96-well harvestor (6 x 16 with extended tips, or SKATRON cell harvestor) onto LKB double thickness filter mats. • viii. The cell harvestor was adjusted so that each well was washed with 10 mL of 100% ethanol. • ix. Filter mats were baked in microwave oven for 6-8 min. to dry the filtermats. • x. The filter mats were placed in counting bags, 30 mL of LKB ,8-scint cocktail was added and the filter mats were counted for 120 sec. in the LKB β-plate counter.
Percent inhibition was calculated according to the following equation: [formula] […]

As for `CCCCCCCC(=O)CCCCCC/C=C/C(C(=O)NC(Cc1ccc(O)cc1)C(=O)O)C(O)(CC(=O)O)C(=O)O` (stereo not shown) [Compound A], the half-maximal inhibitory concentration (IC50) (as a rule, the concentration at which inhibition is half-maximal) on squalene synthase [1] is 12.7 µM; at squalene synthase [2], 15 µM; on squalene synthase [3], 70.3 µM; against Farnesyl Transferase it was 8 µM.

Regarding `CCCCCCCC(=O)CCCCCC/C=C/C(C(=O)NC(Cc1ccccc1)C(=O)O)C(O)(CC(=O)O)C(=O)O` (stereo not shown) [Compound C], the IC50 on squalene synthase [1] is 1.74 µM; on squalene synthase [3], 33.5 µM; at Farnesyl Transferase, 4.5 µM.

Take `CCCCCCCC(=O)CCCCCC/C=C/C(C(=O)NC(Cc1c[nH]c2ccccc12)C(=O)O)C(O)(CC(=O)O)C(=O)O` (stereo not shown) [Compound D]: the IC50 was 0.358 µM on squalene synthase [1], 0.472 µM on squalene synthase [3] and 3.3 µM against Farnesyl Transferase.
